According to patent US20260062437A1, “ANTIVIRAL COMPOUNDS” (priority 2022, published 2026):
“Also recorded” adds a separate entry of the source. Where two headings read alike, the source gives them in different places.

Tests used:
ZIKV [1] = conditions: cited from earlier work; for antiviral activity against ZIKV: previously tested
Vero cells = test: Cytotoxicity assay (Alamar blue) in Vero cells; assay type: cell-based; conditions: for decrease in cell viability: after 5 days (HLB-0532246: at high concentrations); for cytotoxicity / change in cell viability: after 2 or 5 days; for change in cell viability: over/after 5 days
Protocol: (§1) HUH7 and Vero cell lines were maintained in a humidified 5% CO2 environment at 37° C. HUH7 cells were cultured in DMEM (4500 mg/L “high glucose”+L-glutamine+25 mM HEPES-sodium pyruvate) supplemented with fetal bovine serum (10% FBS), penicillin (100 IU/mL), streptomycin ([…]), and 1% nonessential amino acids (NEAA). Vero cells were cultured in EMEM media supplemented with FBS (10% FBS), penicillin (100 IU/mL), and streptomycin (100 μg/mL). Cytotoxicity assays were done similarly to a previous report (J. Med. Chem. 2021, 64, 15429-15439). HUH7 or Vero cells were seeded at 2,000 cells/well in their appropriate cell culture media (50 μL) in 96-well clear plates and incubated for 24 hours. A DMSO solution of each individual compound was serially diluted (solution concentrations of 0.1, 0.5 and 1.0 mM were made) in the appropriate cell line media, and each solution (50 μL) was dosed to the cells (well volume total of 100 μL; final DMSO concentration of 0.5%). DMSO-only and no-cell control wells were dosed with a DMSO-media solution (50 μL of 1% DMSO in media) rather than compound. The cells were then incubated for 2 or 5 days. Two hours before the designated time point, Alamar blue (10 μL) was added to each well. At the time point, fluorescence data were measured using a BioTek Synergy H1 microplate reader. Cell viability was calculated by subtracting background fluorescence (no-cell control) from the measured fluorescence of each well. Wells with compounds were normalized to the DMSO-only control (100% viability) and no-cell controls. Each individual experiment was performed in groups of three technical replicates. For the reported Vero studies, cytotoxicity experiments were repeated in biological triplicate. The final cell viability percentage was calculated by averaging % viability from each of the biological replicates, and the uncertainty was calculated by propagating the standard deviations from each biological replicate (taking the square root of the sum of the squares of individual standard deviations).

HUH7 cells = test: Cytotoxicity assay (Alamar blue) in HUH7 cells; assay type: cell-based; conditions: for decrease in cell viability: after 5 days (HLB-0532246: at high concentrations); for cytotoxicity / change in cell viability: after 2 or 5 days; for change in cell viability: over/after 5 days
Protocol: as §1

WNV = conditions: previously tested, cited from earlier work
West Nile Virus = test: Antiviral plaque assay with West Nile Virus; assay type: cell-based
ZIKV [2] = test: Antiviral testing against ZIKV; assay type: cell-based, Zika Virus
polymerase of WNV = polymerase of WNV (West Nile virus, UniProt P06935); conditions: cited from earlier work
polymerase of ZIKV = polymerase of ZIKV (Zika virus, UniProt Q32ZE1); conditions: cited from earlier work
[3] = molecular target: polymerase of hepatitis C (HCV) (Hepatitis C virus genotype 1a, UniProt P27958); conditions: cited from earlier work
[4] = molecular target: polymerase of dengue (DENV) (Dengue virus type 2, UniProt P29990); conditions: cited from earlier work
polymerase of polio (PV) = polymerase of polio (PV) (Poliovirus type 1, UniProt P03300); conditions: cited from earlier work
polymerase of SARS-CoV-2 = polymerase of SARS-CoV-2 (Severe acute respiratory syndrome coronavirus 2, UniProt P0DTD1); conditions: cited from earlier work

Chain of polymerase of ZIKV (Q32ZE1 2517-3419): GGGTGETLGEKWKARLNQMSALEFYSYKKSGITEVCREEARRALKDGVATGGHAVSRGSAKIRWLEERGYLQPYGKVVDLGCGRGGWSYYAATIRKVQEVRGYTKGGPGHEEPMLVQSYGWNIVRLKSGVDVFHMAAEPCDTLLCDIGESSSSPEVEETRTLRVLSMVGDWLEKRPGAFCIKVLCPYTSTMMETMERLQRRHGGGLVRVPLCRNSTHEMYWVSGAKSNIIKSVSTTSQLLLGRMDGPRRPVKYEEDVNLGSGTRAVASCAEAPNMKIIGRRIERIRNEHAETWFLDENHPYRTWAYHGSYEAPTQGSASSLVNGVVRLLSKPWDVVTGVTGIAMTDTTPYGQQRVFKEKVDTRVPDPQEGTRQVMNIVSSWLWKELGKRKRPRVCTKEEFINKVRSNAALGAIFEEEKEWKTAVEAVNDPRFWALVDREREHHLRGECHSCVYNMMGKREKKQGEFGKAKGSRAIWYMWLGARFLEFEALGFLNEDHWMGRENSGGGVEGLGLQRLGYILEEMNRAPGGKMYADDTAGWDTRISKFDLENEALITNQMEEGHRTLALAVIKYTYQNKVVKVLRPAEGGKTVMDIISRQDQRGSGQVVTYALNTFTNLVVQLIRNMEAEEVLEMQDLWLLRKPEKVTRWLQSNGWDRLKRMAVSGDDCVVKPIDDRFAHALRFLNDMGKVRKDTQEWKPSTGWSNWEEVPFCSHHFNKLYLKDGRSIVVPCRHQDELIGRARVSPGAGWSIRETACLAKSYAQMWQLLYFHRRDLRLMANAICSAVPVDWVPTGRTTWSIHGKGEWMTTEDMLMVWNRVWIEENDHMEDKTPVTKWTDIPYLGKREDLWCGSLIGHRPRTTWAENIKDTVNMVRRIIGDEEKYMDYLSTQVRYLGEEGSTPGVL
Chain of polymerase of WNV (P06935 2526-3430): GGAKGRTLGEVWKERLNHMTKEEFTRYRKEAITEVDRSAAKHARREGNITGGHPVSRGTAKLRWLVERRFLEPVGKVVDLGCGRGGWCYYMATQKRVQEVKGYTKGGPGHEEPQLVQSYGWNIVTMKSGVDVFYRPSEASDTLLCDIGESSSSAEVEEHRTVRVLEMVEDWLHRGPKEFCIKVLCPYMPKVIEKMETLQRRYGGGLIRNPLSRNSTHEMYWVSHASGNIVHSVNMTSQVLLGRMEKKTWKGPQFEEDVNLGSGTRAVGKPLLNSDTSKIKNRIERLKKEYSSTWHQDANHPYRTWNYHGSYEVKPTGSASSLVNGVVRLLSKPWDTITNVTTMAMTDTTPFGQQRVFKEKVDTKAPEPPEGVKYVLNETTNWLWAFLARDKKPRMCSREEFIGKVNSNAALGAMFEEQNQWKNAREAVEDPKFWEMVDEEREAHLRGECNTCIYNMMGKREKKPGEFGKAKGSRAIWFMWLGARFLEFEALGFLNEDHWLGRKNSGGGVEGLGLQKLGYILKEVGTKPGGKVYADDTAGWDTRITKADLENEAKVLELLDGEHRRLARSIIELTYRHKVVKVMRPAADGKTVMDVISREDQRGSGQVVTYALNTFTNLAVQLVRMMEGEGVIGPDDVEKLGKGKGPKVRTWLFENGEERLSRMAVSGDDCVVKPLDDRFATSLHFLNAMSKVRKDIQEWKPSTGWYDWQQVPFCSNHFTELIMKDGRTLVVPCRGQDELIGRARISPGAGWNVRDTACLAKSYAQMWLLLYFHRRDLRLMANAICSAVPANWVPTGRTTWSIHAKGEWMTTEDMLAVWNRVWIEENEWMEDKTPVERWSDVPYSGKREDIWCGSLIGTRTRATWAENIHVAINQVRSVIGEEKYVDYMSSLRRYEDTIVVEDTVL
Chain of polymerase of hepatitis C (HCV) (P27958 2421-3011 limits assumed): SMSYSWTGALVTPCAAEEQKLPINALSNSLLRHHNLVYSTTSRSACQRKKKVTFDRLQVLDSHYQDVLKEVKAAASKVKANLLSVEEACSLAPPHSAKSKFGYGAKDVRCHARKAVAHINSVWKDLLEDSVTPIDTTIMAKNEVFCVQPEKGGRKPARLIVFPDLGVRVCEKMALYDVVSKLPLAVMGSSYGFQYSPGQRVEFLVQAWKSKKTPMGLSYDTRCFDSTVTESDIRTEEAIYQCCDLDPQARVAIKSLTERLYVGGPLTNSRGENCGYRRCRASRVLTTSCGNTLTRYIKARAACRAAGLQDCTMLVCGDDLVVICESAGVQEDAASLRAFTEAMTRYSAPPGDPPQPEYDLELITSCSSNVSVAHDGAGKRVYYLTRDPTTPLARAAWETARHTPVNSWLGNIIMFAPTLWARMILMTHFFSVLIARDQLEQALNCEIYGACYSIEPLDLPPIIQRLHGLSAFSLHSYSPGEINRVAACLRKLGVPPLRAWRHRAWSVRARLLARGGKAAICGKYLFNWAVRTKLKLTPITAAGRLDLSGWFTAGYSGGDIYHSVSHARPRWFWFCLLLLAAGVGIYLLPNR
Chain of polymerase of dengue (DENV) (P29990 2492-3391): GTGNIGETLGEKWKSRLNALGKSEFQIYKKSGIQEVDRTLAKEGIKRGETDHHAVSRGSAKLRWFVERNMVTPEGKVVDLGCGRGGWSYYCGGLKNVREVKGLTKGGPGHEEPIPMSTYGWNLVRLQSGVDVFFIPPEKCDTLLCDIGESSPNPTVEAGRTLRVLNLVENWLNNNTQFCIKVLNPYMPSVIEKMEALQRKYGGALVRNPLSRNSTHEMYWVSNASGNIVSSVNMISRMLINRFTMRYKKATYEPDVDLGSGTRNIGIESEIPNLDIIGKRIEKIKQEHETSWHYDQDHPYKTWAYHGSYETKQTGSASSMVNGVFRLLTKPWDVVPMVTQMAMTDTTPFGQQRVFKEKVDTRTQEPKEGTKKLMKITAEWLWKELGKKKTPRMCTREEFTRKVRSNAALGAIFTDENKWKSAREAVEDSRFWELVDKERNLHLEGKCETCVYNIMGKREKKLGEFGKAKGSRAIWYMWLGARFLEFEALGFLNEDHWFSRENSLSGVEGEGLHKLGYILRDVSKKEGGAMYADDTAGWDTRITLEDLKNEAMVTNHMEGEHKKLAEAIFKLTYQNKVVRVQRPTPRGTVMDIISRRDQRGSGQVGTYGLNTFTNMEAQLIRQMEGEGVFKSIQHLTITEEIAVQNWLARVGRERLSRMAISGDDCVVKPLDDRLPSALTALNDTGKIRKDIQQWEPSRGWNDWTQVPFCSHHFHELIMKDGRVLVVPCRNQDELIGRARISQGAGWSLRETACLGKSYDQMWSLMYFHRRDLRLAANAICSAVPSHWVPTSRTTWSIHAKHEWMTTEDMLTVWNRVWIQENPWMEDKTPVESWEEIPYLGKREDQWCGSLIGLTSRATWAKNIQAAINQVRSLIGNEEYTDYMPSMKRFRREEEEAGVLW
Chain of polymerase of polio (PV) (P03300 1749-2209 limits assumed): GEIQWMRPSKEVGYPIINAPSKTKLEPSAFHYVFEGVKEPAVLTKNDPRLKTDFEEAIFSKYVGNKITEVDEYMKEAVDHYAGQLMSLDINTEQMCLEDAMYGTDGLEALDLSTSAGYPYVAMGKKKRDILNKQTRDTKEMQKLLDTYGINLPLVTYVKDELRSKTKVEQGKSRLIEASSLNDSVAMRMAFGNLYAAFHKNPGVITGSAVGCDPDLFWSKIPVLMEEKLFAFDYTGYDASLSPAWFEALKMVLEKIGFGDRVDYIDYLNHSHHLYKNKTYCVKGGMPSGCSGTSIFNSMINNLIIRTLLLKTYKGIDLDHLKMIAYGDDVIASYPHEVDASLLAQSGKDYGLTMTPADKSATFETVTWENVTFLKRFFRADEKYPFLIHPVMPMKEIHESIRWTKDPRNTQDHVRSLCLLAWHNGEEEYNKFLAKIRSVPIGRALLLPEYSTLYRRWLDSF

SMILES: Nc1ccn([C@@H]2OC(CO)=C[C@H]2O)c(=O)n1 [3′-deoxy-3′,4′-didehydro-cytidine]
- ZIKV inhibitory activity (ZIKV [1]; cellular studies (Gizzi et al., Nature 2018)): only weak ZIKV inhibitory activity

SMILES: Nc1ccn([C@@H]2OC(CO)=C[C@@H]2O)c(=O)n1 [HLB-0532246, reference compound]
- decrease in cell viability (Vero cells): 10%
- decrease in cell viability (HUH7 cells): 10%
- antiviral activity against ZIKV (ZIKV [1]; Vero cells): demonstrated antiviral activity
- antiviral activity against WNV (WNV; cell line not stated): inactive

SMILES: CC(C)OC(=O)[C@H](C)N[P@](=O)(OCC1=C[C@H](O)[C@H](n2ccc(N)nc2=O)O1)Oc1ccccc1 [HLB-0532247]
- cytotoxicity / change in cell viability (Vero cells): did not show any cytotoxicity
- cytotoxicity / change in cell viability (HUH7 cells): did not show any cytotoxicity
- antiviral activity against ZIKV (ZIKV [1]; HUH7 cells): potent antiviral activity
- antiviral activity against ZIKV (ZIKV [1]; Vero cells): potent antiviral activity
- antiviral activity against WNV (WNV; HUH7 cells): potent antiviral activity

SMILES: CC(C)OC(=O)[C@H](C)N[P@](=O)(OCC1=C[C@H](O)[C@H](n2ccc(=O)[nH]c2=O)O1)Oc1ccccc1 [HLB-0532254]
- decrease in cell viability (Vero cells): 10%
- decrease in cell viability (HUH7 cells): 25%
- antiviral activity against West Nile Virus (West Nile Virus): no activity; also recorded: not active
- antiviral activity against ZIKV (ZIKV [2]; at 1.0 mM): did not display antiviral activity
- antiviral activity against ZIKV (ZIKV [2]; dosed at 0.1 mM): potent activity

SMILES: Cc1cn([C@@H]2OC(CO[P@@](=O)(N[C@@H](C)C(=O)OC(C)C)Oc3ccccc3)=C[C@@H]2O)c(=O)[nH]c1=O [HLB-0535065]
- cytotoxicity / change in cell viability (Vero cells): did not show any cytotoxicity
- cell viability (HUH7 cells; by day 5): 50%
- antiviral activity against West Nile Virus (West Nile Virus): no activity
- antiviral activity against ZIKV (ZIKV [2]): no activity

SMILES: Cc1cn([C@@H]2OC(CO)=C[C@@H]2O)c(=O)[nH]c1=O [HLB-0535066]
- cytotoxicity / change in cell viability (Vero cells): did not show any cytotoxicity
- change in cell viability (HUH7 cells): remained unchanged
- antiviral activity against West Nile Virus (West Nile Virus): no activity
- antiviral activity against ZIKV (ZIKV [2]): no activity

SMILES: O=c1ccn([C@@H]2OC(CO)=C[C@@H]2O)c(=O)[nH]1 [HLB-0535069]
- change in cell viability (Vero cells): did not show a significant decrease in cell viability
- change in cell viability (HUH7 cells): did not show a significant decrease in cell viability
- antiviral activity against West Nile Virus (West Nile Virus): no activity
- antiviral activity against ZIKV (ZIKV [2]): did not display antiviral activity

SMILES: Nc1nc2c(ncn2[C@@H]2OC(CO)=C[C@@H]2O)c(=O)[nH]1 [HLB-0535072]
- cytotoxicity / change in cell viability (Vero cells): No significant change in cell viability
- change in cell viability (HUH7 cells): slight decrease in cell viability
- antiviral activity against West Nile Virus (West Nile Virus): no activity
- antiviral activity against ZIKV (ZIKV [2]): Antiviral activity was observed

SMILES: CC(C)OC(=O)[C@H](C)N[P@](=O)(OCC1=C[C@H](O)[C@H](n2cnc3c(=O)[nH]c(N)nc32)O1)Oc1ccccc1 [HLB-0535073]
- cytotoxicity / change in cell viability (Vero cells): No significant change in cell viability
- cytotoxicity / change in cell viability (HUH7 cells): No significant change in cell viability
- antiviral activity against West Nile Virus (West Nile Virus): no activity
- antiviral activity against ZIKV (ZIKV [2]): Antiviral activity was observed

SMILES: CC(C)OC(=O)[C@H](C)N[P@](=O)(OCC1=C[C@H](O)[C@H](n2cnc3c(=O)[nH]cnc32)O1)Oc1ccccc1 [HLB-0535083]
- change in cell viability (Vero cells): No change in cell viability
- change in cell viability (HUH7 cells): No change in cell viability
- antiviral activity against West Nile Virus (West Nile Virus): no activity
- antiviral activity against ZIKV (ZIKV [2]): no activity

SMILES: Nc1ccn([C@@H]2OC(COP(=O)(O)OP(=O)(O)OP(=O)(O)O)=C[C@H]2O)c(=O)n1 [ddhCTP, 3′-Deoxy-3′,4′-didehydro-cytidine-5′-triphosphate]
- inhibition of WNV polymerase (polymerase of WNV): inhibits
- inhibition of ZIKV polymerase (polymerase of ZIKV): inhibits
- inhibition of HCV polymerase [3]: inhibits
- inhibition of DENV polymerase [4]: inhibits
- inhibition of PV polymerase (polymerase of polio (PV)): weak inhibition
- inhibition of SARS-CoV-2 polymerase (polymerase of SARS-CoV-2): inhibits
